Source: PubChem BioAssay AID248 (DTP/NCI, 2004)
Values joined by “and” are separate entries in the source; they are usually repeats but may differ in a detail not shown here. Equal entries are not always repeated. Inconclusive results and toxic doses are left out.

System: L1210 leukemia ip in BDF1 mice, survival T/C
Experiment: NCI In Vivo Anticancer Drug Screen. Data for tumor model L1210 Leukemia (intraperitoneal) in B6D2F1 (BDF1) mice
Settings: endpoint: mean survival time, higher = longer survival
Outline: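 Tumor cells were implanted, animals were treated, and survival was followed. The result divides the treated measurement by the vehicle-control measurement.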

[1] = dose: 50.0 mg/kg/injection, schedule: Q04DX002 (ip), vehicle: Klucel (hydroxypropylcellulose) (HPC)
[2] = dose: 100.0 mg/kg/injection, schedule: Q04DX002 (ip), vehicle: Klucel (hydroxypropylcellulose) (HPC)
[3] = dose: 100.0 mg/kg/injection, schedule: Q01DX009 (ip), vehicle: saline with Tween-80
[4] = dose: 100.0 mg/kg/injection, schedule: Q04DX003 (ip), vehicle: saline with Tween-80
[5] = dose: 200.0 mg/kg/injection, schedule: Q01DX009 (ip), vehicle: saline with Tween-80
[6] = dose: 200.0 mg/kg/injection, schedule: Q04DX003 (ip), vehicle: saline with Tween-80
[7] = dose: 400.0 mg/kg/injection, schedule: Q04DX003 (ip), vehicle: saline with Tween-80
[8] = dose: 400.0 mg/kg/injection, schedule: Q01DX009 (ip), vehicle: saline with Tween-80

CCC(=O)Nc1cccc(OP(=O)(N(C)C)N(C)C)c1 was tested, and the T/C (dose: 100.0 mg/kg/injection, schedule: Q01DX001 (ip), vehicle: saline with Tween-80) was 96 % of control, the T/C (dose: 200.0 mg/kg/injection, schedule: Q01DX001 (ip), vehicle: saline with Tween-80) was 102 % of control and the T/C (dose: 400.0 mg/kg/injection, schedule: Q01DX001 (ip), vehicle: saline with Tween-80) was 88 % of control.

CCOCCOC(=O)CSCC(=O)OCCOCC was tested, and the T/C (dose: 100.0 mg/kg/injection, schedule: Q01DX001 (ip), vehicle: saline) was 93 % of control, the T/C (dose: 200.0 mg/kg/injection, schedule: Q01DX001 (ip), vehicle: saline) was 104 % of control and the T/C (dose: 400.0 mg/kg/injection, schedule: Q01DX001 (ip), vehicle: saline) was 109 % of control.

In the case of Clc1ccc2c(c1)/C(=C/c1cccnc1)c1cc(Cl)cc(Cl)c1-2, the T/C (dose: 100.0 mg/kg/injection, schedule: Q01DX009 (ip), vehicle: Klucel (hydroxypropylcellulose) (HPC)) is reported as 93 % of control, the T/C (dose: 100.0 mg/kg/injection, schedule: Q04DX003 (ip), vehicle: Klucel (hydroxypropylcellulose) (HPC)) is reported as 88 % of control and the T/C (dose: 200.0 mg/kg/injection, schedule: Q01DX001 (ip), vehicle: Klucel (hydroxypropylcellulose) (HPC)) is reported as 94 % of control. The T/C (dose: 200.0 mg/kg/injection, schedule: Q01DX009 (ip), vehicle: Klucel (hydroxypropylcellulose) (HPC)) was 90 % of control, the T/C (dose: 200.0 mg/kg/injection, schedule: Q04DX003 (ip), vehicle: Klucel (hydroxypropylcellulose) (HPC)) was 95 % of control and the T/C (dose: 400.0 mg/kg/injection, schedule: Q01DX001 (ip), vehicle: Klucel (hydroxypropylcellulose) (HPC)) was 90 % of control. For the same compound, the T/C (dose: 400.0 mg/kg/injection, schedule: Q04DX003 (ip), vehicle: Klucel (hydroxypropylcellulose) (HPC)) was 88 % of control.

For C/C=C(\C)C(=O)Nc1ccc(Cl)c(Cl)c1, the T/C (dose: 222.0 mg/kg/injection, schedule: Q01DX Z (ip), vehicle: methylcellulose (MC)) was 93 % of control, the T/C (dose: 333.0 mg/kg/injection, schedule: Q01DX Z (ip), vehicle: methylcellulose (MC)) was 90 % of control and the T/C (dose: 500.0 mg/kg/injection, schedule: Q01DX Z (ip), vehicle: methylcellulose (MC)) was 98 % of control.

For O=COCC1CCC(NC(=O)N(CCCl)N=O)CC1 (configuration not stated), the T/C (dose: 2.6 mg/kg/injection, schedule: Q01DX001 (ip), vehicle: Klucel (hydroxypropylcellulose) (HPC)) was 103 % of control, the T/C (dose: 4.0 mg/kg/injection, schedule: Q01DX001 (ip), vehicle: Klucel (hydroxypropylcellulose) (HPC)) was 111 % of control and the T/C (dose: 6.0 mg/kg/injection, schedule: Q01DX001 (ip), vehicle: Klucel (hydroxypropylcellulose) (HPC)) was 123 % of control. For the same compound, the T/C (dose: 9.0 mg/kg/injection, schedule: Q01DX001 (ip), vehicle: Klucel (hydroxypropylcellulose) (HPC)) was 227 % of control, the T/C (dose: 12.0 mg/kg/injection, schedule: Q01DX001 (ip), vehicle: Klucel (hydroxypropylcellulose) (HPC)) was 293 % of control and 319 % of control and the T/C (dose: 15.0 mg/kg/injection, schedule: Q01DX001 (ip), vehicle: Klucel (hydroxypropylcellulose) (HPC)) was 273 % of control. The T/C (dose: 18.0 mg/kg/injection, schedule: Q01DX001 (ip), vehicle: Klucel (hydroxypropylcellulose) (HPC)) was 328 % of control and the T/C (dose: 26.0 mg/kg/injection, schedule: Q01DX001 (ip), vehicle: Klucel (hydroxypropylcellulose) (HPC)) was 280 % of control.

CC(C)(C)C(=O)C(Br)Br was tested, and the T/C (dose: 25.0 mg/kg/injection, schedule: Q04DX002 (ip), vehicle: Klucel (hydroxypropylcellulose) (HPC)) was 101 % of control, the T/C [1] was 96 % of control and the T/C [2] was 97 % of control and 101 % of control.

For COc1cc(CCl)c(OC)cc1Cl, the T/C [3] was 100 % of control, the T/C [4] was 99 % of control and the T/C [5] was 106 % of control. The T/C [6] was 91 % of control and the T/C [7] was 99 % of control.

CCCOC(=O)Nc1cccc(O)c1 was tested, and the T/C [3] was 92 % of control, the T/C [5] was 94 % of control and the T/C [8] was 88 % of control.

For Oc1ccc2ccccc2c1/C=N/N=c1\[nH][nH]/c(=N\N=C\c2c(O)ccc3ccccc23)c2ccccc12, the T/C (dose: 50.0 mg/kg/injection, schedule: Q01DX001 (ip), vehicle: carboxymethylcellulose (CMC)) was 95 % of control, the T/C (dose: 100.0 mg/kg/injection, schedule: Q01DX001 (ip), vehicle: carboxymethylcellulose (CMC)) was 93 % of control and the T/C (dose: 200.0 mg/kg/injection, schedule: Q01DX001 (ip), vehicle: carboxymethylcellulose (CMC)) was 98 % of control. The T/C (dose: 400.0 mg/kg/injection, schedule: Q01DX001 (ip), vehicle: carboxymethylcellulose (CMC)) was 87 % of control.

For CCCSP(C(C)C)C(C)C, the T/C (dose: 12.5 mg/kg/injection, schedule: Q04DX003 (ip), vehicle: saline with Tween-80) was 94 % of control, the T/C (dose: 25.0 mg/kg/injection, schedule: Q04DX003 (ip), vehicle: saline with Tween-80) was 94 % of control and the T/C (dose: 50.0 mg/kg/injection, schedule: Q04DX003 (ip), vehicle: saline with Tween-80) was 91 % of control.

In the case of O=C1CCN(C2(c3ccccc3)CCCCC2)CC1, the T/C (dose: 100.0 mg/kg/injection, schedule: Q04DX002 (ip), vehicle: saline) is reported as 92 % of control, the T/C (dose: 200.0 mg/kg/injection, schedule: Q04DX002 (ip), vehicle: saline) is reported as 103 % of control and the T/C (dose: 400.0 mg/kg/injection, schedule: Q04DX002 (ip), vehicle: saline) is reported as 97 % of control.

With COC(=O)C(COC1OC(COC(C)=O)C(OC(C)=O)C(OC(C)=O)C1NC(C)=O)NC(=O)OCc1ccccc1 (configuration not stated) the T/C [1] was 91 % of control, the T/C [2] was 98 % of control and the T/C (dose: 200.0 mg/kg/injection, schedule: Q04DX002 (ip), vehicle: Klucel (hydroxypropylcellulose) (HPC)) was 88 % of control.

In the case of CC(C)C1=CCC2C(=C1)CCC1C(C)(C(N)=O)CCCC21C (configuration not stated), the T/C [3] is reported as 102 % of control, the T/C [5] is reported as 92 % of control and the T/C [8] is reported as 89 % of control.

OC(Cc1nccc2ccccc12)(C(F)(F)F)C(F)(F)F was tested, and the T/C [3] was 93 % of control, the T/C [4] was 100 % of control and the T/C [5] was 93 % of control. The T/C [6] was 101 % of control, the T/C [8] was 94 % of control and the T/C [7] was 100 % of control.
